In patent US7091345B2, “Amino-substituted dihydropyrimido[4,5-D]pyrimidinone derivatives” (Hoffmann-La Roche Inc., priority 2002, dated 2006):
Like-named read-outs stand apart in the source and are kept apart here.

What was measured:
[1] = Pharmacokinetic study in mice, plasma levels after single p.o. dose; format: in vivo; settings: male NMRI mice, p.o. single dose 30 mg/kg as micro-suspension, dose-normalised
Description: A preferred pharmaceutical preparation was obtained by using the following procedure: • 1. Weigh 4.0 g glass beads in custom made tube GL 25, 4 cm (the beads fill half of the tube). • 2. Add 50 mg compound, disperse with spatulum and vortex. • 3. Add 2 ml gelatin solution (weight beads: gelatin solution=2:1) and vortex. • 4. Cap and wrap in aluminium foil for light protection. • 5. Prepare a counter balance for the mill. • 6. Mill for 4 hours, 20/s in a Retsch mill (for some substances up to 24 hours at 30/s). • 7. Extract suspension from beads with two layers of filter (100 μm) on a filter holder, coupled to a recipient vial by centrifugation at 400 g for 2 min. • 8. Move extract to measuring cylinder. • 9. Repeat washing with small volumes (here 1 ml steps) until final volume is reached or extract is clear. • 10. Fill up to final volume with gelatin and homogenise.
The above described preparation yields micro-suspensions of the compounds of formula I with particle sizes between 1 and 10 μm. The suspensions are suitable for oral applications and were used in the in vivo pharmacokinetic testings described below.
To male NMRI mice of 29–35 g body weight the compounds according to this invention were given p.o. as micro-suspensions (7.5% modified gelatine and 0.22% NaCl) in doses of 30 mg/kg (Drug concentration: 3 mg/mL. Administered volume: 10 mL/kg) and as single dose administration. Study Protocol:
Animals were fasted overnight up to 4 hrs. after administration of the compound. For each single p.o. dose the mice were allocated to 3 groups with 4 animals each. Blood samples are taken from group 1 at 0.5, 3 and 24 hours, from group 2 at 1 and 6 hours, and from group 3 at 2 and 8 hours.
Blood samples of about 200 μl were obtained by retro-orbital puncture. Plasma samples were obtained from heparinized/EDTA blood by centrifugation at room temperature, and stored frozen at −20° C. until analysis.
Plasma was deproteinated and subsequently analysed for plasma levels of the compound by a compound specific HPLC-MS method. WinNonlin™ was used to calculate the pharmacokinetic parameters.

[2] = molecular target: T1, Src (p60^c-src) (Homo sapiens, UniProt P12931); assay: SRC-Inhibitor-Assay, time-resolved fluorescence kinase assay (Src); format: biochemical; settings: ATP 5 μM, enzyme 2.5 U/ml, pre-incubation 15 min at 15° C.
T1 construct: purchased Upstate (UBI)
Description: (§1) The activity of the compounds according to this invention as inhibitors for the src-family tyrosine kinases was shown by using the following assay.
(§2) SRC-Inhibitor-Assay Parameters:
(§3) Assay buffer: 4 mM MgCl2 • 2 mM TCEP • 50 mM HEPES • 0,1% Tween 20 • pH 7.3
(§4) Material: Eu-labelled phosphotyrosine antibody:—for Lck Cisbio Mab PT66-K, for Src EG&G Wallac PT66 Eu-W1024 (all commercially available). Peptides: Ro: NH2-A-E-E-E-I-Y-G-E-F-E-A-K-K-K-K-CONH2, and Ja133-Ro: Ja133-G-Aminocaprylic acid-A-E-E-E-I-Y-G-E-F-E-A-K-K-K-K-CONH2, wherein Ja133 is LightCycler-Red 640-N-hydroxy succinimide ester; whereby both peptides were synthesized by an optimized solid phase peptide synthesis protocol (Merrifield, Fed. Proc. Fed. Amer. Soc. Exp. Biol. 21 (1962) 412) on a Zinsser SMP350 peptide synthesizer. Shortly, the peptide was assembled on 160 mg (22.8 μmol scale) of a Rink-Linker modified polystyrene solid phase by repeatedly conjugating an twenty fold excess of amino acids each protected by temporary piperidine labile Fmoc- and permanent acid labile tert-Bu-, BOC— and Otert-Bu-groups depending on the side chain function. The substrate sequence AEEEIYGEFEAKKKK was N-terminal additionally mounted with the spacer amino acids Aminocaprylic acid and Glycin. After cleavage of the N-terminal temporary protecting group the still attached and protected peptide was labeled with a 1.5 fold amount of LightCycler-Red 640-N-hydroxy succinimide ester (purchased by Roche Diagnostics GmbH) and triethylamine. After 3 hrs. the resin was washed with Dimethylformamide and Isopropanol until the eluates of the blue resin got colourless. […] The substrate was finally isolated by a preparative reverse phase HPLC purification. The purification yielded 12.2 mg RP-HPLC single peak pure blue material (lyophilisate). The identity was proven by MALDI mass spectroscopy [2720.0]. Enzymes: Upstate Lck (p56^lck, active), Upstate Src (p60^c-src, partially purified) were purchased from UBI. Time-resolved Fluorescence Assay: Reader: Perkin Elmer, Wallac Viktor 1420-040 multilabel counter; Liquid handling system: Beckman Coulter, Biomek 2000. ATP, Tween 20, HEPES were purchased from Roche Molecular Biochemicals, MgCl2 and MnCl2 were purchased from Merck Eurolab, TCEP was purchased from Pierce, 384 Well low volume fluorescence plates was purchased from Falcon. Assay Description:
(§5) At first the enzyme is pre-incubated for 15 min. at 15° C. in aqueous solution with corresponding amounts of inhibitors according to this invention. Then the phosphorylation reaction is started by adding a reaction mixture, containing ATP, Peptide and PT66, and subsequent shaking. The proceeding of this reaction is immediately monitored using time resolved fluorescence spectroscopy in a suitable well plate reader.
(§6) The IC50-values can be obtained from the reaction rates by using a non-linear curve fit (Excelfit).

[3] = molecular target: T2, Lck (p56^lck) (Homo sapiens, UniProt P06239); assay: SRC-Inhibitor-Assay, time-resolved fluorescence kinase assay (Lck); format: biochemical; settings: ATP 5 μM, enzyme 2.5 U/ml, pre-incubation 15 min at 15° C.
T2 construct: purchased Upstate (UBI)
Description: as §1, §2, §3, §4, §5, §6

T2 sequence (P06239 whole entry, species assumed): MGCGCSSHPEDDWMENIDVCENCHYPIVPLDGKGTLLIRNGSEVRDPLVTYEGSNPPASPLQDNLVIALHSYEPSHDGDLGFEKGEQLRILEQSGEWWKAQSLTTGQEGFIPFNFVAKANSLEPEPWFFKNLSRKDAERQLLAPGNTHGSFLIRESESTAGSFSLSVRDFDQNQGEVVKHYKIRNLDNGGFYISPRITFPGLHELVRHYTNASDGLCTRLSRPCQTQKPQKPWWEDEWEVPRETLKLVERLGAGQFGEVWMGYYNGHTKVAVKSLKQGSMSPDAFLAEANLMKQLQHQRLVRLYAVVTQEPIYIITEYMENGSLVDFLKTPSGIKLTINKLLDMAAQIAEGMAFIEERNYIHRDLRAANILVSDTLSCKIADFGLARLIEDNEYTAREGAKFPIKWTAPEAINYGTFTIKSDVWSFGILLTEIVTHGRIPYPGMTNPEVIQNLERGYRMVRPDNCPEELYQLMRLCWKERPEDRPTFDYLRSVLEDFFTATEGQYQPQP
T1 sequence (P12931 whole entry): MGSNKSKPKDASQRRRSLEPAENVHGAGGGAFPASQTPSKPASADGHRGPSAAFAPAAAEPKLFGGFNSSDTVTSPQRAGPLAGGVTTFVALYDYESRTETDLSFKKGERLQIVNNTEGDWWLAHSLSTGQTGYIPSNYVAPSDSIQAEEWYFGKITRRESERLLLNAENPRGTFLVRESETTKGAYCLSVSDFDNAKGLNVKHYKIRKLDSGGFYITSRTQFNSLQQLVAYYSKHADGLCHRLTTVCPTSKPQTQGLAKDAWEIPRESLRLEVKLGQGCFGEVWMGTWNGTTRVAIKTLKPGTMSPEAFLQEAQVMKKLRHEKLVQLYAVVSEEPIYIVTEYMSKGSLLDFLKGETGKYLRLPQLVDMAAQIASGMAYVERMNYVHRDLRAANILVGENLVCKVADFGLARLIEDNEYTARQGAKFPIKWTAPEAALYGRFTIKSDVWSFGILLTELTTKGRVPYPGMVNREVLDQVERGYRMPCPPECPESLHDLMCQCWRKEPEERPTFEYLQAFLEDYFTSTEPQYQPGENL

With `CN1C(=O)N(c2ccccc2Br)Cc2cnc(Nc3ccc4c(c3)OCC(CO)O4)nc21` (stereo not drawn) [Example 1, 3-(2-bromo-phenyl)-7-(2-hydroxymethyl-2,3-dihydro-benzo[1,4]dioxin-6-ylamino)-1-methyl-3,4-dihydro-1H-pyrimido[4,5-d]pyrimidin-2-one] the “AUC = area under the curve from T = 0 to T = 24 hrs” value (“AUC = area under the curve” for short) [1] was 379 (h * ng/ml))/(mg/kg), the melting point was 156 to 158 °C and the IC50 ([2]; read-out: IC 50 (src)) was 7.5 nM. The IC50 ([3]; read-out: IC 50 (lck)) was 6.3 nM.

With `CN1C(=O)CSc2cc(Nc3ncc4c(n3)N(C)C(=O)N(c3c(F)cccc3Br)C4)ccc21` [Example 13-12, 3-(2-bromo-6-fluoro-phenyl)-1-methyl-7-(4-methyl-3-oxo-3,4-dihydro-2H-benzo[1,4]thiazin-7-ylamino)-3,4-dihydro-1H-pyrimido[4,5-d]pyrimidin-2-one] the “AUC = area under the curve” value [1] was 592 (h * ng/ml))/(mg/kg), the melting point was 145 to 149 °C and the IC50 ([2]; read-out: IC 50 (src)) was 4.2 nM. The IC50 ([3]; read-out: IC 50 (lck)) was 14 nM.

With `CN1C(=O)N(c2ccccc2Br)Cc2cnc(Nc3ccc4c(c3)OC3(CCNCC3)O4)nc21` [Example 7, 3-(2-bromo-phenyl)-3,4-dihydro-7-(spiro[1,3-benzodioxolo-2,4′-piperidine]-5-yl)amino-1-methyl-pyrimido[4,5-d]pyrimidin-2(1H)-one] the “AUC = area under the curve” value [1] was 813 (h * ng/ml))/(mg/kg), the IC50 ([2]; IC 50 (src)) was 2 nM and the IC50 ([3]; IC 50 (lck)) was 2.4 nM.

For `CN1C(=O)N(c2ccccc2Br)Cc2cnc(Nc3ccc4c(c3)OCC(CN3CCCC3)O4)nc21` (stereo not drawn) [Example 13-21, 3-(2-bromo-phenyl)-1-methyl-7-(2-pyrrolidin-1-ylmethyl-2,3-dihydro-benzo[1,4]dioxin-6-ylamino)-3,4-dihydro-1H-pyrimido[4,5-d]pyrimidin-2-one], the “AUC = area under the curve” value [1] was 120 (h * ng/ml))/(mg/kg) and the melting point was 201 to 203 °C.

`CN1CCS(=O)(=O)c2cc(Nc3ncc4c(n3)N(C)C(=O)N(c3ccccc3Br)C4)ccc21` [Example 13-26, 3-(2-bromo-phenyl)-1-methyl-7-(4-methyl-1,1-dioxo-1,2,3,4-tetrahydro-1lambda*6*-benzo[1,4]thiazin-7-ylamino)-3,4-dihydro-1H-pyrimido[4,5-d]pyrimidin-2-one] gave a melting point of 250 to 251 °C.

In the case of `CN1C(=O)N(c2c(F)cccc2Br)Cc2cnc(Nc3ccc4c(c3)OC3(CCNCC3)O4)nc21` [Example 13-46, 3-(2-bromo-6-fluoro-phenyl)-3,4-dihydro-7-(spiro[1,3-benzodioxolo-2,4′-piperidine]-5-yl)amino-1-methyl-pyrimido[4,5-d]pyrimidin-2(1H)-one], the “AUC = area under the curve” value [1] is reported as 234 (h * ng/ml))/(mg/kg), the melting point is reported as 146 to 153 °C and the IC50 ([2]; IC 50 (src)) is reported as 2.3 nM. The IC50 ([3]; IC 50 (lck)) was 2.6 nM.
